# Data reported in a melting point compilation (Tetko et al.; mined from patent text by program, amines drawn as free bases though some values may be those of a salt).
row,melting point [°C],SMILES
1,205 to 206,Clc1ccc(Nc2ncnc(-c3ccnc(N4CCCCC4)c3)n2)cc1
2,234 to 236,O=C(Nc1ccc(C(=O)N2C[C@@H]3CCCN3C(=S)c3ccccc32)cc1)c1ccccc1-c1ccccc1
3,172 to 173,CCc1ccc(-c2nc3ccccc3[nH]2)nc1
4,225 to 230,O=C(Nc1sc2c(c1S(=O)(=O)O)CCCC2)C1CC1
5,255,CC(=O)N(c1ccc(O)cc1)c1ccc2cc(O)ccc2c1
6,206 to 208,COc1ccc2c(Cc3c(Cl)cncc3Cl)nnc(-c3ccccc3)c2c1
7,134 to 135,O=C(CCCO)Nc1cccc(-c2cccc3cc(Cc4cccc(C(F)(F)F)c4)oc23)c1
8,144,N#CCc1ccc2nc(-c3ccccc3)oc2c1
9,126,O=C1N(c2ccc(Cl)cc2Cl)Cc2cnc(Nc3ccccc3)nc2N1c1cccc(CCN2CCNCC2)c1
10,151 to 152,CC(C)C(C)(C(=O)O)N1C(=O)c2ccccc2C1=O (stereo not given)
11,110 to 112,[N-]=[N+]=N[C@H](C(=O)O)C12CC3CC(CC(C3)C1)C2
12,88 to 92,Brc1ccc(Br)c2nonc12
13,113 to 114,CC1(C2CCCC2)Cc2cc(OCC(=O)O)c(Cl)c(Cl)c2C1=O (stereo not given)
14,122 to 123,CCCCn1c(=O)c(NC(=O)Nc2c(C(C)C)cc(CO)cc2C(C)C)c(-c2cccc(OC)c2)c2cccnc21
15,125,O=C(Cn1ccnc1)c1ccc(F)cc1F
16,89 to 90,Cc1c(C)c2c(c(C)c1O)C(CO)C(C)(C)O2 (stereo not given)
17,110 to 112,Cc1cc(F)ccc1Nc1nc(N(C)c2ccccc2)c2cccc(OCCCN(C)C)c2n1
18,155 to 156,CC1Oc2cc3nc(SCc4ccccn4)[nH]c3cc2O1
19,187,CC1=C(CCN(O)C(N)=O)c2cc(F)ccc2/C1=C\c1ccc(S(C)(=O)=O)cc1
20,124 to 127,CCc1cc(=O)c(C(=O)OC)c(CC)[nH]1
21,196 to 198,CC(=O)c1ccc(=O)[nH]c1C
22,175 to 177,CSc1cn(C)c2cc(-c3ccccc3Cl)sc2c1=O
23,184 to 185,CCC(=O)OCC(=O)C12OCOC1CC1C3CCC4=CC(=O)C=CC4(C)C3C(O)CC12C (stereo not given)
24,124 to 126,CC(C)(C)OC(=O)NCCC(=O)NC(CC(=O)OCc1ccccc1)c1ccccc1 (stereo not given)
25,127 to 129,CC(C)(C)C1CCC(=O)C(CC(=O)c2ccccc2)C1 (stereo not given)
26,175 to 178,CC(C)(C)c1cc(C=Cc2ccccc2NC(=O)N(Cc2ccccc2)Cc2ccccc2)cc(C(C)(C)C)c1O

row,melting point [°C],SMILES
1,113 to 116,COC(=O)[C@H](Cc1c[nH]cn1)NC(=O)[C@H](Cc1ccccc1)NC(=O)OCc1ccccc1
2,218,CCOC(=O)c1c(O)c2sccc2[nH]c1=O
3,130 to 131,CCOC(=O)/C=C/c1nc(COc2ccc(COc3nn(-c4ccccc4)cc3/C=C/P(=O)(OCC)OCC)cc2OC)c(C)o1
4,303 to 304,O=C1c2cccc3c4c(cc(c23)C(=O)N1O)OCO4
5,181 to 182,CC(C)(C)S(=O)(=O)c1ccc(C(=O)O)c(Cl)c1
6,86 to 88,Cc1ncc(CCCOc2c(C)cc(-c3nnn(C)n3)cc2C)s1
7,267 to 270,COc1cc2ncnc(N3CCN(C(=O)Nc4cc(Cl)nc(Cl)c4)CC3)c2cc1OC
8,164,O=C(Nc1ccccc1)NC1CCCCC1
9,187 to 190,N#CCc1cc(Cl)cc2c(-c3ccc(Cl)cc3)onc12
10,37 to 38,CCCCCCCCCCCC(CC(=O)C(CCCCCC)C(=O)OC)OC1CCCCO1 (stereo not given)
11,160,O=C(NO)OCC1c2ccccc2-c2ccccc21
12,109 to 110,CCOC(=O)COc1ccc(C=O)cc1NC(=O)c1ccc(OCCCCc2ccccc2)cc1
13,83 to 85,CC(=O)NC1CCN(Cc2ccccc2)C1 (stereo not given)
14,142 to 143,CCOc1cc(=O)oc2cc(C)ccc12
15,124 to 125,CCCCCCCCCCCCCCCCN(CCCCCCCCCCCCCCCC)C(CCCCN)C(=O)O (stereo not given)
16,77 to 82,CCOC(=O)C12CCC(=O)N1C(=O)CC2
17,75 to 80,CCCCC(c1cccc(C(F)(F)F)c1)n1ccc2cc(-c3ccccc3-c3nn[nH]n3)ccc21 (stereo not given)
18,169,CNS(=O)(=O)c1ccc(N)c(C(=O)N2CCNCC2)c1
19,205 to 206,CCCc1nc2c(N)nc3cc(OCc4ccccc4OC)ccc3c2n1CC(C)C
20,70 to 71,COC(=O)C1CCc2onc(-c3ccc(Cl)cc3)c2CC1 (stereo not given)
21,154 to 157,CCCCCS(=O)(=O)NC(=O)/C=C/c1cc(OC2CCOCC2)nn1Cc1ccc(Cl)cc1Cl
22,74 to 75,C=CC[C@H]1Cc2c(OCOC)cccc2C(=O)O1
23,44 to 46,CS(=O)(=O)c1ccccc1OC(F)(F)F
24,> 246,Nc1cc(C(=O)NC2CC2)n[nH]1
25,122 to 124,CCOC(=O)C1=C(C)NC(=S)N(C(=O)OCc2ccccc2)C1c1cccc([N+](=O)[O-])c1 (stereo not given)
26,175 to 176,Clc1cc2nc(Cl)n(Cc3ccccc3)c2cc1Cl

row,melting point [°C],SMILES
1,89 to 90,C=C(C#N)S(=O)(=O)c1ccc(OC(F)(F)C(Cl)Cl)cc1
2,181 to 182,COc1cccc(-c2cn(N)c(N)n2)c1
3,303 to 307,O=C(O)CCc1ccc(OCC2CCN(c3ccncc3)CC2)cc1
4,76 to 78,ICC(c1ccccc1)c1ccccc1
5,> 220,CCc1nn2c(N)cc(Cl)nc2c1S(=O)(=O)c1ccccc1
6,130 to 132,O=C(O)c1ccccc1C(=O)NCCC(Oc1c(Br)cc(-c2ccc(-c3c(Cc4ccccc4)sc4ccccc34)cc2)cc1Br)C(=O)O (stereo not given)
7,192 to 194,O=c1[nH]c(CCCn2ccnc2)nc2ccc(Cl)cc12
8,244 to 246,CC(C)(C)c1cc(-n2nc3c(Br)ccc(Br)c3n2)c(O)c(C(C)(C)C)c1
9,169 to 171,CCCCc1ncc(/C=C(\Cc2cccs2)C(=O)O)n1Cc1ccc(CC(=O)O)cc1
10,281,COCCN(C)C1=N/C(=C\c2c[nH]c3ncc(Cl)cc23)C(=O)N1
11,80 to 82,Cc1ccc(NC(=O)C(C)(C)CCCOc2cc(C)ccc2C)c(C)c1
12,204 to 205,O=C1c2ccccc2C(=O)N1CCCCc1nccc(NC(=S)NCC(F)(F)F)n1
13,163,CCCc1cc(C(=O)O)ccc1OCc1ccccc1
14,140 to 142,CCOC(=O)C1=C(CSCCNC=O)NC(C)=C(C(C)=O)C1c1cccc([N+](=O)[O-])c1 (stereo not given)
15,79 to 83,CCOC(=O)/C=C/c1ccc(OCC(C)(C)O)cc1Oc1ncc(C(F)(F)F)cc1Cl
16,228 to 234,COc1cc2c(cc1OC)CN(CCNc1ccc(NC(=O)c3cccc4c(=O)c5cccc(OC)c5[nH]c34)cc1)CC2
17,190 to 192,O=COCc1cc2c3ccccc3[nH]c(=O)n2n1
18,175 to 176,NC(=O)c1cc2c(Oc3ccc(C(F)(F)F)cc3)cnc(Cl)c2s1
19,86 to 88,Cc1cn(C2CC(N=[N+]=[N-])C(C(O)S(C)(=O)=O)O2)c(=O)n(C(=O)c2ccccc2)c1=O (stereo not given)
20,122,CC(C)N(Cc1cccs1)S(=O)(=O)N[C@@H](Cc1ccc(NC(=O)c2cc(Cl)cc(Cl)c2)cc1)C(=O)O
21,120 to 121,COc1cc(C2OCCO2)cc(I)c1O
22,260 to 261,CCOC(=O)C1=C(C#N)Nc2nccn2C1c1cccc([N+](=O)[O-])c1 (stereo not given)
23,81 to 82,O=C(O)CCCc1ccc(-c2ccc(F)cc2Cl)cc1
24,52.5,Clc1cccc(Cc2ccc(OCCCn3cccn3)c(Cl)c2)c1
25,150,Cc1cc2c(cc1Cl)nc(Br)n2[C@@H]1OC[C@@H](O)[C@@H](O)[C@H]1O
26,193 to 195,CC1(CCn2c(=O)oc3ccccc32)Cn2cc([N+](=O)[O-])nc2O1 (stereo not given)

row,melting point [°C],SMILES
1,187 to 190,O=C(O)CCCc1ccc(-c2ccc(Cl)cc2)cc1
2,84 to 87,COc1c(OCCOc2ccc(C(C)(C)C)cc2)ccnc1C
3,129 to 131,COc1ccc(N2C(=O)C(=O)N(c3ccccc3)C2=O)cc1
4,118 to 120,CCC(C)c1ccc(OC(C)=O)c(C2(OC(C)=O)C(=O)c3ccccc3C2=O)c1 (stereo not given)
5,56 to 58,N#CCC(=O)c1ccccc1Cl
6,189,COC(=O)c1cc(-c2c(OC)cccc2OC)n(-c2cc(C(=O)O)ccc2C)n1
7,166 to 168,CCOc1cc(C(O)CS(C)(=O)=O)cc(OCC)c1N (stereo not given)
8,> 330,Cc1cc2[nH]c(=O)c(=O)[nH]c2cc1Cl
9,115 to 116,COC(=O)c1cc(OC)c(N(C)C(C)=O)c(OC)c1
10,140 to 141,CC(=O)Nc1ccccc1N1CCOCC1
11,152 to 154,Cc1nc2ccc(Cl)cn2c(=O)c1CCN1CCN(c2cccc(Cl)c2)CC1
12,162,O=C(Nc1ccc(OCc2ccccc2)cc1)C1CC1
13,126 to 128,Nc1ccc(OCc2ccccc2)c2cnsc12
14,235 to 237,O=c1nc(-c2cccc(CCOP(=O)(O)O)n2)sc2ccccc12
15,120,N#Cc1ccc(C(=O)C=Cc2ccccc2)cc1
16,120 to 124,COc1ccc(-c2cc(F)c3c(Cl)c(O)ccc3c2)cc1
17,185 to 186,COc1ccc2c(c1)C=Cn1c(nnc1OC)C2
18,56 to 58,COc1ccc(Oc2c(C)cc(CC#N)cc2C)cc1C(C)C
19,218 to 221,Cc1ccc(-c2c3c(cc4ccc(O)cc24)-c2ccc(O)cc2CO3)cc1C
20,235 to 236,CCOC(=O)c1nc2cc(Br)c(Br)cc2[nH]c1=O
21,223 to 224,CCCc1nc2c(ccc3[nH]c4cnc(C(=O)OC(C)C)c(C)c4c32)o1
22,64,CSC(=S)C1(c2ccncc2)CCCS1 (stereo not given)
23,104 to 105,Cc1nc(C)c(C(C)(O)c2ccoc2)s1 (stereo not given)

row,SMILES,melting point [°C]
1,CC(C)P1(=O)c2ccccc2CN1C(C)(C)C (stereo not given),67 to 70
2,COc1cccc(N2CCN(CCCO)CC2)c1,87 to 89
3,O=c1[nH]c(N[N+](=O)[O-])ncc1Cc1ccncc1,228 to 229
4,COCC12CCC(=O)CC1CCC1C3CCC(=O)C3(C)CCC12 (stereo not given),94 to 96
